Assay [1] addresses T1, dopamine D2 receptor (Homo sapiens, UniProt P14416). As to conditions: literature; cited from earlier work.
The subject of assay [2] is prenatally valproate-treated rats. Put plainly: maternal deprivation-induced ultrasonic vocalization in rat pups, prenatal valproate model. As to conditions: acute p.o.; effect at 0.003, 0.03 and 0.1 mg/kg (0.01 mg/kg also tested); Figure 1. It is filed as in vivo, Wistar rats. Here is the method: Ultrasonic call counts are recorded for 10 min.
The test system is the same in assay [3]. Put plainly: social play behavior, prenatal valproate model. It is filed as in vivo, Wistar rats. The following applies: p.o. daily for 8 days; 0.003-0.1 mg/kg, significant at 0.1 mg/kg; male offspring; Figure 3.
Method: Offspring are housed according to standard laboratory conditions until time of behavioral testing. Animals are housed in groups of 4 in conventional cages and maintained at 22-24°C on a standard 12 hour light/dark cycle, with food and water available ad libitum. After investigational drug treatment, offspring are examined behaviorally in tests relevant for the assessment of autistic behavior. These tests include maternal deprivation-induced ultrasonic vocalization in rat pups, social play, social preference and the open field. […] At postnatal day 30, following 8 days treatment with the test compound, prenatally VPA-treated rats are evaluated for juvenile play behavior. The test is carried out in a novel test arena with pairs of animals from the same treatment group over a 15-min trial. Animals are scored for play activity measured by duration of social play behavior. Statistical analysis employs one-way ANOVA and the post hoc Dunnett test.
Assay [4] shares this test system. The experiment in a line: open field assay, prenatal valproate model. It is filed as in vivo, Wistar rats. As to conditions: p.o. daily for 9 days, 0.003-0.1 mg/kg, male offspring.
Method: Offspring are housed according to standard laboratory conditions until time of behavioral testing. Animals are housed in groups of 4 in conventional cages and maintained at 22-24°C on a standard 12 hour light/dark cycle, with food and water available ad libitum. After investigational drug treatment, offspring are examined behaviorally in tests relevant for the assessment of autistic behavior. These tests include maternal deprivation-induced ultrasonic vocalization in rat pups, social play, social preference and the open field. […] At postnatal day 31-32, animals are scored for locomotor activity and exploratory behavior in a 10-min trial in an open field test arena after 9-day oral treatment with the test compound. Activity is analysed for readouts of repetitive/stereotypic behaviors such as total distance moved and frequency of circling behavior. Statistical analysis employs one-way ANOVA and the post hoc Dunnett test.
Assay [5] has as its target T2, serotonin 5-HT1A receptor (Homo sapiens, UniProt P08908).
T2 sequence (P08908 1-422): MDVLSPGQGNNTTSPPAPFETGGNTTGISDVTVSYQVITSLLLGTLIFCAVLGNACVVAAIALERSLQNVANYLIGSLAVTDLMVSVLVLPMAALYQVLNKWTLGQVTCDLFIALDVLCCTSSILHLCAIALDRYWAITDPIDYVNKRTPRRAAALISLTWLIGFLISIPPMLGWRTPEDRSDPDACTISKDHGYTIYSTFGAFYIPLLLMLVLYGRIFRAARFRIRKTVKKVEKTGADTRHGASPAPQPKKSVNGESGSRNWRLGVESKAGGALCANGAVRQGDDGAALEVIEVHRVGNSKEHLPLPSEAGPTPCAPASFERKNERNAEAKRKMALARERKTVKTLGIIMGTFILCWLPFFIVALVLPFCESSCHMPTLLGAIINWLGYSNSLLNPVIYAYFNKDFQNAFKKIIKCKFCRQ
The following applies: cited from earlier work.

Assay [6] deals with T3, serotonin 5-HT2B receptor (Homo sapiens, UniProt P41595). As to conditions: literature; cited from earlier work.
In another assay the target is dopamine D2L receptor (Homo sapiens, UniProt P14416). Put plainly: dopamine D2L receptor affinity. It is filed as binding.
The target in assay [7] is T2, serotonin 5-HT1A receptor. The experiment in a line: biochemical.
Assay [8] addresses T3, serotonin 5-HT2B receptor. The experiment in a line: serotonin 5-HT2B receptor affinity. It is filed as binding.
Assay [9] concerns the target T2, serotonin 5-HT1A receptor. As to conditions: Compound 2.
For the next assay, the target named is dopamine D2S receptor (Homo sapiens, UniProt P14416). Put plainly: dopamine D2S receptor affinity. It is filed as binding.
Assay [10] has as its target T1, dopamine D2 receptor. The experiment in a line: functional activity at dopamine D2 receptor. It is filed as biochemical. The following applies: Compound 2.
The target in assay [11] is T3, serotonin 5-HT2B receptor. Put plainly: functional activity at serotonin 5-HT2B receptor. The following applies: Compound 2. It is filed as biochemical.

“Also recorded” adds a separate entry of the source. Like-named read-outs stand apart in the source and are kept apart here.

T3 sequence (P41595 whole entry): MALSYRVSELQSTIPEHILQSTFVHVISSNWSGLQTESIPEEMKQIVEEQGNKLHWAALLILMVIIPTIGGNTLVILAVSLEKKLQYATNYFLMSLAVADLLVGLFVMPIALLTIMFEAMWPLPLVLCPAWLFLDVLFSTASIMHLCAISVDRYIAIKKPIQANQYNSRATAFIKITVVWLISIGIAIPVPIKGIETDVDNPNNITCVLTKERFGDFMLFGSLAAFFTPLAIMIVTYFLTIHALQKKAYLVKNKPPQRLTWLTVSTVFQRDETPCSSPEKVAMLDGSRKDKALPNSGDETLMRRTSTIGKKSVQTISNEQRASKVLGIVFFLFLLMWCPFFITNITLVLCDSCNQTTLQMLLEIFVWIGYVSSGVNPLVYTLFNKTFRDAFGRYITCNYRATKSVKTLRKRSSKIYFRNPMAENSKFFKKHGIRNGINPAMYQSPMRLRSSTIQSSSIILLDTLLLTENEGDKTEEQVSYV
T1 sequence (P14416 whole entry): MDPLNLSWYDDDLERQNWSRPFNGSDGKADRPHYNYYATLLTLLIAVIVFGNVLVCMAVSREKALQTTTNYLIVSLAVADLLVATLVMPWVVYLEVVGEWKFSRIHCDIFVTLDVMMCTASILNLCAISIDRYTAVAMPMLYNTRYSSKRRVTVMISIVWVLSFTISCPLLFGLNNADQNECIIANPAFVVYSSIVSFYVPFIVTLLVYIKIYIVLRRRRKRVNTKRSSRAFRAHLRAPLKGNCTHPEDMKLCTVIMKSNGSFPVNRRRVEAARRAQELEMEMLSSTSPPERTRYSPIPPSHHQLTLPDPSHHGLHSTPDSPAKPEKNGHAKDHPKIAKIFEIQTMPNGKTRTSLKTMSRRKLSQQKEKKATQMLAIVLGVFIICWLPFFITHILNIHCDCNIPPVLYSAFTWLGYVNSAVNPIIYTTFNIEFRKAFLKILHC
dopamine D2S receptor, sequence (P14416 1-414 isoform P14416-2): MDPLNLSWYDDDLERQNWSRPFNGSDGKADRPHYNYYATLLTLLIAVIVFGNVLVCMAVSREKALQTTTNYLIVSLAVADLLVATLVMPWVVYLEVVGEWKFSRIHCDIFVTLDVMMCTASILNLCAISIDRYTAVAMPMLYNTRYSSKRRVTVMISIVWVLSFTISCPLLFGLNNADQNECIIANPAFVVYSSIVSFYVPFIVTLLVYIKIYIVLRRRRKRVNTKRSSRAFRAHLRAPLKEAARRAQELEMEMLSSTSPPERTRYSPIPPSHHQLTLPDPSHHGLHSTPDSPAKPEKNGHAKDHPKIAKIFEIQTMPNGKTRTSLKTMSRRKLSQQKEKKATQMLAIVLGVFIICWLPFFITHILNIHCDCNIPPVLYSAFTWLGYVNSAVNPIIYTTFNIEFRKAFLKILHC
dopamine D2L receptor, sequence (P14416 whole entry): as the sequence (P14416 whole entry) above

On to `CN(C)C(=O)N[C@H]1CC[C@H](CCN2CCN(c3cccc(Cl)c3Cl)CC2)CC1` [cariprazine, trans-N-[4-[2-[4-(2,3-dichlorophenyl)piperazin-1-yl]ethyl]cyclohexyl]-N',N'-dimethylurea], for which the “functional character at the dopamine D2 receptor” value on dopamine D2 receptor [1] was “partial agonist”. For the same compound, the “isolation-induced vocalizations (number of USV vocalizations)” value in [2] is “statistically significant; also recorded: fully reversed”. Moreover, the “social play deficit (time spent playing)” value in assay [3] is “statistically significant; also recorded: partially nevertheless, significantly reversed”. In addition, the “excessive motility / hyperactivity (distance travelled)” value in assay [4] (significant at 0.1 mg/kg, Figure 4) is “fully reversed”. Moreover, the “excessive circling behavior (number of 360-degree turns)” value in assay [4] (significant at all doses, Figure 5) is given as “statistically significant; also recorded: fully reversed”. In addition, in [5] (literature (Heusler et al. 2016; Kiss et al. 2010)), the “intrinsic activity at the serotonin 5-HT1A receptor” value is on record as 38%. In addition, the “functional character at the serotonin 5-HT1A receptor” value in [5] (literature) was “weak partial agonist”. The “functional character at the serotonin 5-HT2B receptor” value in [6] is listed as “full antagonist”.
By Ki is commonly meant a measure of affinity in units of concentration, obtained from inhibition or displacement. Read a low Ki as a stronger hold on the target. `O=C(N[C@H]1CC[C@H](CCN2CCN(c3cccc(Cl)c3Cl)CC2)CC1)N1CCOCC1` [Compound 2, trans-N-(4-{2-[4-(2,3-dichloro-phenyl)-piperazine-1-yl]-ethyl}-cyclohexyl)-morpholine-4 carboxamide]: the Ki at dopamine D2L receptor is 0.4 nM; in assay [7] it was 5.73 nM; in [8], 1.11 nM; at dopamine D2S receptor, 0.52 nM. In addition, in assay [9], the “functional character at the serotonin 5-HT1A receptor” value was “weak partial agonist”. Besides, the “functional character at the dopamine D2 receptor” value on dopamine D2 receptor [10] was “partial agonist”. Further, the “functional character at the serotonin 5-HT2B receptor” value in [11] is “full antagonist”.
